Several values for one entry are separate records, joined by “and”; a condition that tells them apart may be missing. Equal entries are not always repeated. Where two headings read alike, the source gives them in different places.
Legend:
[1] = Dissolving rate (time until solution is clear) of succinic acid and succinic acid-NaHCO3 adduct; assay type: physicochemical; details: for Time until solution is clear: three runs
Description: This solution is stirred and heated briefly until all the solids have dissolved. Then the solution is dried to constant weight (for approximately 48 hours) at approximately 105° C. in a drying oven. The product, which forms amorphous crystals, is homogenized in a mortar.

[2] = for pH of finished solution: 1st-3rd test
Source text: This concentrate was then mixed with a 1 molar sodium bi-carbonate solution and diluted with the stated amount of water.

[3] = 12.98 g/L, 0.11 mol/l, concentrate 0.22 meq/L
[4] = 19.47 g/L, 0.165 mol/l, concentrate 0.33 meq/L
[5] = 25.96 g/L, 0.22 mol/L, concentrate 0.44 meq/L
[6] = 38.94 g/L, 0.33 mol/L, concentrate 0.66 meq/L
[7] = 58.11 g/L, 0.495 mol/L, concentrate 0.99 meq/L

Time until solution is clear, Average [1, 3]: 210 | Time until solution is clear [1, 3]: 200 and 210 and 220 | Time until solution is clear, Average [1, 4]: 250 | Time until solution is clear [1, 4]: 230 and 250 and 270 | Time until solution is clear, Average [1, 5]: 358 | Time until solution is clear [1, 5]: 400 and 375 and 300 | Time until solution is clear, Average [1, 6]: 460 | Time until solution is clear [1, 6]: 510 and 420 and 450 | Time until solution is clear, Average [1, 7]: >900 | Time until solution is clear [1, 7]: 900 and >1080 and 960 | dissolution rate ([1]; in water, in words): very low | pH of finished solution ([2]; 35 mL 1 molar NaHCO3, 951 mL water, 14 mL 0.15 molar succinic acid): 7.08 and 7.09 | pH of finished solution ([2]; 35 mL 1 molar NaHCO3, 953 mL water, 12 mL 0.15 molar succinic acid): 7.16 and 7.17 | pH of finished solution ([2]; 35 mL 1 molar NaHCO3, 955 mL water, 10 mL 0.15 molar succinic acid): 7.26 and 7.27 | pH of finished solution ([2]; 35 mL 1 molar NaHCO3, 957 mL water, 8 mL 0.15 molar succinic acid): 7.42 and 7.39 and 7.41 | pH of finished solution ([2]; 40 mL 1 molar NaHCO3, 946 mL water, 14 mL 0.15 molar succinic acid): 7.14 and 7.16 and 7.19 | pH of finished solution ([2]; 40 mL 1 molar NaHCO3, 948 mL water, 12 mL 0.15 molar succinic acid): 7.24 and 7.25 | pH of finished solution ([2]; 40 mL 1 molar NaHCO3, 950 mL water, 10 mL 0.15 molar succinic acid): 7.34 and 7.35 and 7.32 | pH of finished solution ([2]; 40 mL 1 molar NaHCO3, 952 mL water, 8 mL 0.15 molar succinic acid): 7.46 and 7.47 and 7.48 | concentration sufficient to adjust a physiological pH ([2]; in terms of the finished ready-to-use solution, relatively high sodium bicarbonate concentration): 1.5 mmol/L
Compound: O=C(O)CCC(=O)O [succinic acid]
